What follows are compounds tested on NaCT-CHO (CHO cells stably expressing human NaCT) (assay: Assay of the citric acid cycle activation ([1,5-14C]-citric acid, diffusion of [14C]-CO2)). Details: 1 hour incubation at 37° C. with [1,5-14C]-citric acid.
Format: cell-based
From the text: Assay of the Citric Acid Cycle Activation
(1) Construction of the Human NaCT Expression Vector pME-NaCT
The human NaCT (also called SLC13A5 or NAC2; GenBank accession No. NM_177550) cDNA was inserted into the EcoRI-NotI site of the mammalian expression vector pME18S (GenBank accession No. AB009864) and purified by Qiagen Plasmid Maxi Kit (Qiagen).
(2) Establishment of NaCT Stably Expressed CHO Cells
The pME-NaCT vector and the pcDNA™3.1 vector containing the neomycin resistance gene (Life Technologies) were co-transfected into CHO-K1 cells (ATCC) by Lipofectaimine 2000 reagent (Life Technologies). The next day the cells were subcultured in Nutrient Mixture F-12 Ham (Sigma-Aldrich) with 10% FBS (Biological Industries), and Geneticin (Life Technologies) was added (final concentration 350 μg/mL) in the following day. CHO cell clones stably expressing NaCT were given by neomycin resistant cell screening and limiting dilution method. Established cell lines (named NaCT-CHO) were also maintained in culture medium (Nutrient Mixture F-12 Ham) with 10% FBS and 350 μg/mL Geneticin. For control cells (named pME-CHO) preparation, the naive pME18S were also transfected instead of pME-NaCT into CHO-K1 cells.
(3) Assay of the Citric Acid Cycle Activation
NaCT-CHO and pME-CHO were plated at 20,000 cells/well into white CulturPlate™-96 (PerkinElmer) two days before the assay. Prior to assay incubation, the cultured plates were washed twice with washing buffer, 10 mM HEPES-Tris(pH7.4) containing 140 mM choline chloride, 2 mM KCl, 1 mM CaCl2, 1 mM MgCl2. The compounds to be tested were dissolved and diluted in DMSO (Wako Pure Chemical industries) to 1,000 times of a final concentration, and further diluted to two times as high as the final concentration in assay buffer, 10 mM HEPES-Tris(pH7.4) containing 140 mM NaCl, 2 mM KCl, 1 mM CaCl2, 1 mM MgCl2. The range of final concentrations was properly determined based on the test compounds activity. Each 25 μL compound solution was added to well and subsequently 25 μL radio-labeled substrate solution containing 0.4 mM (0.4 MBq/mL) [1,5-^14C]-citric acid (PerkinElmer) in the assay buffer was added. After 1 hour incubation at 37° C., the reaction mixture was discarded and washed three times with pre-chilled washing buffer and then 0.1 mL MicroScint 20 (PerkinElmer) was added to well. The plate was sealed with TopSeal-A (PerkinElmer) and the radioactivity was measured using a TopCount (PerkinElmer). Non-specific activity (NS cpm) and total radio activity (Total cpm) were determined by counting of pME-CHO plated wells and NaCT-CHO plated wells without compounds, respectively. Diffusion of [^14C]—CO2 was able to be estimated from residual radioactivity (R cpm) by an equation (Total−R)/(Total−NS)×100(%). The difference of Total and R was disappeared in the presence of 0.1 μM antimycin A. EC50 values were calculated by regression analysis using SAS Statistical Analysis System (SAS institute Japan Ltd. Release 9.1).
In the case of CN(Cc1cc(C(F)(F)F)cc(C(F)(F)F)c1)c1cccc(-c2nn[nH]c2C#N)c1 [Example 58, 5-{3-[N-(3,5-bis-trifluoromethyl-benzyl)-N-methyl-amino]-phenyl}-3H-[1,2,3]triazole-4-carbonitrile], the EC50 is reported as 720 nM. Work on N#Cc1[nH]nnc1-c1cccc(/C=C/c2ccc(C(F)(F)F)cn2)c1 [Example 48, 5-{3-[(E)-2-(5-trifluoromethyl-pyridin-2-yl)-vinyl]-phenyl}-3H-[1,2,3]triazole-4-carbonitrile] yielded an EC50 of 430 nM. Compound CC(C)Oc1ccc(-c2nn[nH]c2C#N)cc1-c1ccc(C(F)(F)F)nc1 [Example 17] has an EC50 of 520 nM. For CC(C)(C)c1cc(-c2ccc(C(F)(F)F)cn2)cc(-c2nn[nH]c2C#N)c1 [Example 13, 5-[3-tert-butyl-5-(5-trifluoromethyl-pyridin-2-yl)-phenyl]-3H-[1,2,3]triazole-4-carbonitrile], the EC50 was 870 nM. CCCCCCc1nc(-c2nn[nH]c2C#N)cs1 [Example 87, 5-(2-hexyl-thiazol-4-yl)-3H-[1,2,3]triazole-4-carbonitrile] gave an EC50 of 900 nM. Compound N#Cc1[nH]nnc1-c1csc(OCc2ccc(Cl)cc2)n1 [Example 82, 5-[2-(4-chloro-benzyloxy)-thiazol-4-yl]-3H-[1,2,3]triazole-4-carbonitrile] has an EC50 of 760 nM. Work on N#Cc1[nH]nnc1-c1cc(C(F)(F)F)ccc1CCc1ccccc1 [Example 7, 5-(2-phenethyl-5-trifluoromethyl-phenyl)-3H-[1,2,3]triazole-4-carbonitrile] yielded an EC50 of 170 nM. In the case of N#Cc1[nH]nnc1-c1cccn1Cc1ccc(C(F)(F)F)cc1C(F)(F)F [Example 138, 5-[1-(2,4-bis-trifluoromethyl-benzyl)-1H-pyrrol-2-yl]-3H-[1,2,3]triazole-4-carbonitrile], the EC50 is reported as 62 nM. N#Cc1[nH]nnc1-c1ccc(F)c(-c2cc3ccccc3o2)c1 [Example 26, 5-(3-(benzofuran-2-yl)-4-fluoro-phenyl)-3H-[1,2,3]triazole-4-carbonitrile] gave an EC50 of 690 nM. With N#Cc1[nH]nnc1-c1cccc(Sc2ccc(Cl)cc2)c1 [Example 38, 5-[3-(4-chloro-phenylsulfanyl)-phenyl]-3H-[1,2,3]triazole-4-carbonitrile] the EC50 was 420 nM. CCOc1c(/C=C/c2cccc(C(F)(F)F)c2)cccc1-c1nn[nH]c1C#N [Example 43, 5-{2-ethoxy-3-[(E)-2-(3-trifluoromethyl-phenyl)-vinyl]-phenyl}-3H-[1,2,3]triazole-4-carbonitrile] showed an EC50 of 670 nM. For COc1ccc(-c2nn[nH]c2C#N)cc1-c1ccc(F)c(F)c1 [Example 32, 5-(3′,4′-difluoro-6-methoxy-biphenyl-3-yl)-3H-[1,2,3]triazole-4-carbonitrile], the EC50 was 740 nM. CC(Oc1cc(-c2nn[nH]c2C#N)cc(C(F)(F)F)c1)c1ccccc1 (stereo not shown) [Example 64, 5-[3-(1-phenyl-ethoxy)-5-trifluoromethyl-phenyl]-3H-[1,2,3]triazole-4-carbonitrile] was tested, and the EC50 was 240 nM. With Cc1sc(-c2ccc(Cl)cn2)nc1-c1nn[nH]c1C#N [Example 95, 5-[2-(5-chloro-pyridin-2-yl)-5-methyl-thiazol-4-yl]-3H-[1,2,3]triazole-4-carbonitrile] the EC50 was 740 nM. Work on N#Cc1[nH]nnc1-c1cccc(/C=C\c2cc(C(F)(F)F)cc(C(F)(F)F)c2)c1 [Example 53, 5-{3-[(Z)-2-(3,5-bis-trifluoromethyl-phenyl)-vinyl]-phenyl}-3H-[1,2,3]triazole-4-carbonitrile] yielded an EC50 of 480 nM. With N#Cc1[nH]nnc1-c1csc(-c2ccc(OC(F)(F)F)cc2)n1 [Example 80, 5-[2-(4-trifluoromethoxy-phenyl)-thiazol-4-yl]-3H-[1,2,3]triazole-4-carbonitrile] the EC50 was 870 nM. Cc1sc(-c2ccc(Cl)cc2)nc1-c1nn[nH]c1C#N [Example 89, 5-[2-(4-chloro-phenyl)-5-methyl-thiazol-4-yl]-3H-[1,2,3]triazole-4-carbonitrile] was tested, and the EC50 was 760 nM. N#Cc1[nH]nnc1-c1csc(C23CC4CC(CC(C4)C2)C3)n1 [Example 88, 5-(2-(adamantan-1-yl)-thiazol-4-yl)-3H-[1,2,3]triazole-4-carbonitrile] gave an EC50 of 620 nM. Compound Cc1nc(-c2cccc(C(F)(F)F)c2)sc1-c1nn[nH]c1C#N [Example 114, 5-[4-methyl-2-(3-trifluoromethyl-phenyl)-thiazol-5-yl]-3H-[1,2,3]triazole-4-carbonitrile] has an EC50 of 450 nM. With N#Cc1[nH]nnc1-c1nc(Oc2ccc(OC(F)(F)F)cc2)sc1Cl [Example 109, 5-[5-chloro-2-(4-trifluoromethoxy-phenoxy)-thiazol-4-yl]-3H-[1,2,3]triazole-4-carbonitrile] the EC50 was 670 nM. For N#Cc1[nH]nnc1-c1ccc(Oc2cccc(C(F)(F)F)c2)c(F)c1 [Example 72, 5-[3-fluoro-4-(3-trifluoromethyl-phenoxy)-phenyl]-3H-[1,2,3]triazole-4-carbonitrile], the EC50 was 300 nM. Work on CC(Cc1ccccc1)Oc1cc(-c2nn[nH]c2C#N)cc(C(F)(F)F)c1 (stereo not shown) [Example 67, 5-[3-(1-methyl-2-phenyl-ethoxy)-5-trifluoromethyl-phenyl]-3H-[1,2,3]triazole-4-carbonitrile] yielded an EC50 of 490 nM. N#Cc1[nH]nnc1-c1cccc(CCc2ccc(F)cc2F)c1 [Example 40, 5-{3-[2-(2,4-difluoro-phenyl)-ethyl]-phenyl}-3H-[1,2,3]triazole-4-carbonitrile] showed an EC50 of 550 nM. For COc1cc(OCc2cc(C(F)(F)F)ccc2C(F)(F)F)cc(-c2nn[nH]c2C#N)c1 [Example 62, 5-[3-(2,5-bis-trifluoromethyl-benzyloxy)-5-methoxy-phenyl]-3H-[1,2,3]triazole-4-carbonitrile], the EC50 was 600 nM. N#Cc1[nH]nnc1-c1cc(-c2ccccc2)c(C(F)(F)F)s1 [Example 128, 5-(4-phenyl-5-trifluoromethyl-thiophen-2-yl)-3H-[1,2,3]triazole-4-carbonitrile] showed an EC50 of 560 nM. In the case of N#Cc1[nH]nnc1-c1ccccc1Cc1cc(C(F)(F)F)cc(C(F)(F)F)c1 [Example 5, 5-[2-(3,5-bis-trifluoromethyl-benzyl)-phenyl]-3H-[1,2,3]triazole-4-carbonitrile], the EC50 is reported as 200 nM. Compound N#Cc1[nH]nnc1-c1cc(-c2ccc(C(F)(F)F)nc2)cc(C2CC2)c1 [Example 12, 5-[3-cyclopropyl-5-(6-trifluoromethyl-pyridin-3-yl)-phenyl]-3H-[1,2,3]triazole-4-carbonitrile] has an EC50 of 690 nM. With N#Cc1[nH]nnc1-c1ccc(-c2cccc(C(F)(F)F)c2)nc1 [Example 143, 5-[6-(3-trifluoromethyl-phenyl)-pyridin-3-yl]-3H-[1,2,3]triazole-4-carbonitrile] the EC50 was 1020 nM. For N#Cc1[nH]nnc1-c1sc(-c2ccc(F)c(Cl)c2)nc1C(F)(F)F [Example 116, 5-[2-(3-chloro-4-fluoro-phenyl)-4-trifluoromethyl-thiazol-5-yl]-3H-[1,2,3]triazole-4-carbonitrile], the EC50 was 4130 nM. For CC(C)c1oc(-c2ccc(OC(F)(F)F)cc2)nc1-c1nn[nH]c1C#N [Example 124, 5-[5-isopropyl-2-(4-trifluoromethoxy-phenyl)-oxazol-4-yl]-3H-[1,2,3]triazole-4-carbonitrile], the EC50 was 920 nM. For N#Cc1[nH]nnc1-c1cc(F)cc(-c2cccc(C(F)(F)F)c2)c1 [Example 28, 5-(5-fluoro-3′-trifluoromethyl-biphenyl-3-yl)-3H-[1,2,3]triazole-4-carbonitrile], the EC50 was 370 nM. Work on N#Cc1[nH]nnc1-c1cc(Cl)cc(N2CCC(C(F)(F)F)CC2)c1 [Example 24, 5-[3-chloro-5-(4-trifluoromethyl-piperidin-1-yl)-phenyl]-3H-[1,2,3]triazole-4-carbonitrile] yielded an EC50 of 480 nM. In the case of N#Cc1[nH]nnc1-c1cc(OCc2cccc(C(F)(F)F)c2)cc(-c2ccc(C(F)(F)F)cn2)c1 [Example 20, 5-[3-(3-trifluoromethyl-benzyloxy)-5-(5-trifluoromethyl-pyridin-2-yl)-phenyl]-3H-[1,2,3]triazole-4-carbonitrile], the EC50 is reported as 1620 nM. N#Cc1[nH]nnc1-c1cccc(CSCc2ccc(OC(F)(F)F)cc2)c1 [Example 65, 5-[3-(4-trifluoromethoxy-benzylsulfanylmethyl)-phenyl]-3H-[1,2,3]triazole-4-carbonitrile] gave an EC50 of 790 nM.

Source: US10626095B2, “Cyanotriazole compounds” (OTSUKA PHARMACEUTICAL CO., LTD., priority 2013, dated 2020)
